The values below come from patent US8344028B2, “Gamma-amino-butyric acid derivatives as GABAB receptor ligands” (XenoPort, Inc., priority 2009, dated 2013).

Data set [1] concerns S. murinus (house musk shrew). The note with it: subcutaneously 30 minutes prior to challenge at 1, 3, and 10 mg/kg; reduced from about 23; cited from earlier work.
Data set [2] relates to GABAB(1)+/- and GABAB(1)+/+ mice. The note with it: 9.6 mg/kg, cited from earlier work.
Data set [3] is described as follows: Bioavailability following oral administration to rats. The note with it: rat, in vivo. The procedure: Rats were obtained commercially and were pre-cannulated in the jugular vein. Animals were conscious at the time of the experiment. All animals were fasted overnight and until 4 hours post-dosing of a compound.
Rat blood samples (0.3 mL/sample) were collected from all animals prior to dosing and at different time-points up to 24 h post-dose into tubes containing EDTA. Two aliquots (100 μL each) were quenched with 300 μL methanol and stored at −20° C. prior to analysis.
To prepare analysis standards, 90 μL of rat blood was quenched with 300 μL methanol followed by 10 μL of spiking standard and/or 20 μL of internal standard. The sample tubes were vortexed for at least 2 min and then centrifuged at 3400 rpm for 20 min. The supernatant was then transferred to an injection vial or plate for analysis by LC-MS-MS.
To prepare samples for analysis, 20 μL of internal standard was added to each quenched sample tube. The sample tubes were vortexed for at least 2 min and then centrifuged at 3400 rpm for 20 min. The supernatant was then transferred to an injection vial or plate for analysis by LC-MS-MS.
LC/MS/MS analysis was performed using an API 2000 or API 4000 mass spectrometer equipped with a Shimadzu and or Agilent HPLC system are used for determination concentration of compounds in rat blood. A Varian Polaris C18, 3μ 50×4.6 mm column was used. 0.1% Formic acid in water and acetonitrile were applied as the mobile phase. Runs were 4.0 min. […] L-4-Chlorophenylalanine was used as an internal standard at m/z 200.00/154.00.
Non-compartmental analysis was performed using WinNonlin software (v.3.1 Professional Version, Pharsight Corporation, Mountain View, Calif.) on individual animal profiles. […]
The oral bioavailability (F %) of a compound was determined by comparing the area under the compound concentration vs time curve (AUC) following oral administration of a prodrug of a GABAB ligand with the AUC of the compound concentration vs time curve following intravenous administration of the GABAB ligand on a dose normalized basis.

Consider `NCC(CC(=O)O)c1ccc(Cl)cc1` (centres unmarked) [baclofen], for which, in data set [1], the “number of emetic episodes” value is on record as “about 13”. Also, the hypothermia entry in data set [2] (GABAB(1)+/- and GABAB(1)+/+ but not GABAB(1)-/- mice) was “marked hypothermia”. Also, the “time after administration at which hypothermia reaches its minimum” value in data set [2] was 60 to 80 min.
For `C[C@H](N)C(=O)NC[C@H](CC(=O)O)c1ccc(Cl)c(OCc2ccncc2)c1.Cl` [Example 73, (3R)-4-((2S)-2-Aminopropanoylamino)-3-[4-chloro-3-(4-pyridylmethoxy)phenyl]butanoic acid hydrochloride], the “oral bioavailability (F %)” value in data set [3] was “greater than 10%”.
Turning to `Cl.NC(=O)CC[C@H](N)C(=O)NC[C@H](CC(=O)O)c1ccc(Cl)c(-c2ccc(C(=O)O)s2)c1` [Example 80], the “oral bioavailability (F %)” value in data set [3] was “greater than 10%”.
